From article PMC5547393, “Aromatase inhibitory activity of 1,4-naphthoquinone derivatives and QSAR study” (EXCLI Journal, 2017)

How the values were obtained:
MRC-5 cell line [1] = tested on: MRC-5 cell line; design: method as in Prachayasittikul et al., 2014[35]; settings: normal MRC-5 cell line, ref Prachayasittikul et al., 2014[35], cited from earlier work; for IC50: read-out: MRC-5 (µM) cytotoxicity
[2] = molecular target: T1, recombinant human aromatase (CYP19) (Homo sapiens, UniProt P11511); assay: Aromatase inhibition assay (Gentest kit, CYP19 with DBF fluorometric substrate); settings: for Aromatase inhibitory activity category: category by experimental IC50
T1 sequence (P11511 1-503): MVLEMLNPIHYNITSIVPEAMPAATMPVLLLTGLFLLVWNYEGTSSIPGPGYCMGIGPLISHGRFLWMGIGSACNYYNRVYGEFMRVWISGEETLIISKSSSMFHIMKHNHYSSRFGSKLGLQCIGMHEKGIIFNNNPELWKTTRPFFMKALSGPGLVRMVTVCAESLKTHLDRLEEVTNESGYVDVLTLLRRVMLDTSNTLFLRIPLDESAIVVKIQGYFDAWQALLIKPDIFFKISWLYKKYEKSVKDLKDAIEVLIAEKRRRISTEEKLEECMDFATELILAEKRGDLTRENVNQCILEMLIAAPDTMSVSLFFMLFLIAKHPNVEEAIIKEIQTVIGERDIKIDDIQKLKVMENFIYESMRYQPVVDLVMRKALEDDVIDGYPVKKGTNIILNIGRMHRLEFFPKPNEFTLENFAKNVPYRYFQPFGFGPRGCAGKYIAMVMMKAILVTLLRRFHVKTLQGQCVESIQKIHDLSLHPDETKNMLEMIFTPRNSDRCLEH
Procedure: The assay was performed with a Gentest kit using enzyme CYP19 and DBF as a fluorometric substrate. DBF was dealkylated by aromatase and then hydrolyzed, yielding the fluorescein product. […] After the incubation at 37 °C for 30 min, the reaction was terminated by adding 50 µL of 2.2 N NaOH. […] The percentage of inhibition (% inhibition) was calculated using Equation 1. […] IC50 values were determined by plotting concentrations versus % inhibition.

aromatase = assay: QSAR (MLR) prediction of aromatase inhibitory activity; settings: for folds more potent than the compared analogue: pairs: 6c > 6, 7c > 7, 7a > 7, 6 > 6a, 7b > 7a, pIC50 based; for pIC50 fold greater than parent compound 1: predicted pIC50 versus experimental pIC50 0.301 of compound 1
Text: Conceptually, a QSAR model was constructed using the data obtained from experimentally tested compounds (1-11). The constructed model was subsequently used to predict the activity of the additional set of structurally modified compounds (series 1-11) that were generated in silico.
Chemical structures of the tested compounds (1-11) along with their experimental IC50 values were used to construct the QSAR model. The IC50 values were converted to pIC50 values by taking the negative logarithm to base 10 (-log IC50) to obtain a normal distribution of data points.
The chemical structures of 11 tested compounds (1-11) and 39 structurally modified compounds (series 1-11) were drawn using the GaussView software (Dennington et al., 2003[11]). Optimization was performed to obtain the low-energy conformers for further calculation of molecular descriptor values. The compounds were geometrically optimized using Gaussian 09 (Frisch et al., 2009[13]) at the semi-empirical Austin Model 1 (AM1) level, followed by density functional theory (DFT) calculation using Becke's three-parameter hybrid method with the Lee-Yang-Parr correlation functional (B3LYP) together with the 6-31g(d) level. A set of 13 quantum chemical descriptors, i.e., mean absolute atomic charge (Qm), total energy (Etotal), total dipole moment (μ), highest occupied molecular orbital energy (EHOMO), lowest unoccupied molecular orbital energy (ELUMO), energy difference of HOMO and LUMO (HOMO-LUMOGap), electron affinity (EA), ionization potential (IP), Mulliken electronegativity (χ), hardness (η), softness (S), electrophilic index (ωi) and electrophilicity (ω), was extracted using a script developed in-house. The optimized structures were further calculated to obtain an additional set of 3,224 molecular descriptors using Dragon software version 5.5 (Talete, 2007[44]). The molecular descriptors obtained from the Dragon software included 22 classes, i.e., Constitutional descriptors, Topological descriptors, Walk and path counts, Connectivity indices, Information indices, 2D autocorrelation, Edge adjacency indices, Burden eigenvalues, Topological charge indices, Eigenvalue-based indices, Randic molecular profiles, Geometrical descriptors, RDF descriptors, 3D-MoRSE descriptors, WHIM descriptors, GETAWAY descriptors, Functional group counts, Atom-centered fragments, Charge descriptors, Molecular properties, 2D binary fingerprints and 2D frequency fingerprints.
Correlation-based feature selection was employed to initially select important descriptors from a large set of descriptors obtained from the calculation. The pair-correlation of each descriptor value and bioactivity (pIC50) was calculated using a Pearson's correlation coefficient (r) of 0.6 as a cut-off value. Descriptors with |r| < 0.6 were considered weakly correlated descriptors and were excluded from the study, whereas those with |r| ≥ 0.6 were selected for further selection process using stepwise multiple linear regression (MLR) as implemented in SPSS statistics 18.0 (SPSS Inc., USA[41]). Finally, a set of important descriptors was obtained for multivariate analysis.
Multivariate analysis was performed by Waikato Environment for Knowledge Analysis (WEKA) version 3.4.5 (Witten et al., 2011[47]) using a multiple linear regression (MLR) algorithm. Selected descriptor values and pIC50 values were assigned as independent variables (X) and dependent variables (Y), respectively. The MLR model was constructed according to Equation 2: […]
The data set was divided into a training set and a testing set by means of leave-one-out cross validation (LOO-CV). Conceptually, one sample was removed from the entire data set (N) and was used as the testing set, whereas the remaining samples (N-1) were used as the training set. The same sampling process was continued until every sample in the data set was used as the testing set to predict the variable Y (activity). […]

MRC-5 cell line [3] = assay: Cytotoxicity against the normal MRC-5 cell line; assay type: cell-based; settings: MRC-5 cytotoxicity versus aromatase IC50
Text: The cytotoxicity of compounds 1-11 against the normal MRC-5 cell line (Table 1(Tab. 1)) was previously documented (Prachayasittikul et al., 2014[35]).

[4] = Aromatase inhibitory activity IC50, Inactive = % inhibition ≤ 50 % at 12.5 µM
[5] = Experimental aromatase inhibitory activity (pIC50), -log IC50 of the experimental IC50 values

| SMILES | IC50 [2, 4] [µM] | IC50 [2, 5] [µM] | Aromatase inhibitory activity category [2] | IC50 (MRC-5 cell line [1]) [µM] | SI (selectivity index) (MRC-5 cell line [3]) | further results |
| --- | --- | --- | --- | --- | --- | --- |
| CCCCNC1=C(Cl)C(=O)c2ccccc2C1=O [Compound 2] | 8.7 ± 0.9 | 8.71 | moderately active (moderately active (1 µM < IC50 < 10 µM)) |  |  | MRC-5 (µM) cytotoxicity (MRC-5 cell line [1]): non-cytotoxic |
| CN(C1=C(Cl)C(=O)c2ccccc2C1=O)c1ccc(C(=O)C(F)(F)F)cc1 [Compound 7b] |  |  |  |  |  | folds more potent than the compared analogue (aromatase): 2.28 folds |
| CN(C1=C(Cl)C(=O)c2ccccc2C1=O)c1ccccc1 [Compound 4] | 0.5 ± 0.4 | 0.5 | highly active (highly active (IC50 < 1 µM)) | 8.6 ± 0.77 | 17.20 |  |
| CC(=O)c1ccc(N(C)C2=C(Cl)C(=O)c3ccccc3C2=O)cc1 [Compound 7c] |  |  |  |  |  | folds more potent than the compared analogue (aromatase): 2.73 folds |
| O=C1C(Cl)=C(Nc2ccc(C(=O)C(F)(F)F)cc2)C(=O)c2ccccc21 [Compound 7a] |  |  |  |  |  | folds more potent than the compared analogue (aromatase): 1.47 folds |
| CC(=O)c1cccc(NC2=C(Cl)C(=O)c3ccccc3C2=O)c1 [Compound 6] | 3.1 | 3.1 | moderately active (moderately active (1 µM < IC50 < 10 µM)) | 15.5 ± 0.75 | 5.01 | folds more potent than the compared analogue (aromatase): 1.83 folds |
| CC(=O)c1cccc(N(C)C2=C(Cl)C(=O)c3ccccc3C2=O)c1 [Compound 6c] |  |  |  |  |  | folds more potent than the compared analogue (aromatase): 1.67 folds |
| CN(C1=C(Cl)C(=O)c2ccccc2C1=O)c1ccc(C(=O)O)cc1 [Compound 5d] |  |  |  |  |  | folds more potent than ketoconazole (aromatase; predicted pIC50 -0.329 versus ketoconazole pIC50 -0.415): 1.26 folds |
| O=C1C(Cl)=C(Nc2cccc3cccnc23)C(=O)c2ccccc21 [Compound 9] | 4.7 | 4.7 | moderately active (moderately active (1 µM < IC50 < 10 µM)) | 13.6 ± 1.33 | 2.89 |  |
| COc1ccc(CCNC2=C(Cl)C(=O)c3ccccc3C2=O)cc1OC [Compound 11] |  |  | inactive |  |  | MRC-5 (µM) cytotoxicity (MRC-5 cell line [1]): non-cytotoxic |
| O=C1C(Cl)=C(Cl)C(=O)c2ccccc21 [Compound 1, 2,3-dichloro-1,4-naphthoquinone] | 0.5 ± 0.3 | 0.5 | highly active (highly active (IC50 < 1 µM)) | 23 ± 0.42 | 45.98 | IC50 fold lower than ketoconazole [2]: 5.2 fold |
| COc1cccc2c1C(=O)c1c(O)c3c(c(O)c1C2=O)C[C@@](O)(C(=O)CO)C[C@@H]3O[C@H]1C[C@H](N)[C@H](O)[C@H](C)O1 [Doxorubicin, reference compound] |  |  |  |  |  | MRC-5 (µM) cytotoxicity (MRC-5 cell line [1]): non-cytotoxic |
| O=C(O)c1ccccc1NC1=C(Cl)C(=O)c2ccccc2C1=O [Compound 5] | 18 | 18 | weak | 86 ± 3.04 | 4.78 |  |
| CCN(C1=C(Cl)C(=O)c2ccccc2C1=O)c1ccccc1 [Compound 4a] |  |  |  |  |  | pIC50 fold greater than parent compound 1 (aromatase): 1.08 fold; fold less potent than letrozole (aromatase; predicted pIC50 versus letrozole): 10.68 fold |
| O=C1C(Cl)=C(Nc2ccc(Nc3ccccc3)cc2)C(=O)c2ccccc21 [Compound 8] | 1.9 | 1.9 | moderately active (moderately active (1 µM < IC50 < 10 µM)) | 20.8 ± 0.68 | 10.94 |  |
| O=C1C(Cl)=C(NCCc2ccccc2)C(=O)c2ccccc21 [Compound 10] | 3.3 | 3.3 | moderately active (moderately active (1 µM < IC50 < 10 µM)) |  |  | MRC-5 (µM) cytotoxicity (MRC-5 cell line [1]): non-cytotoxic |
| CC(=O)c1ccc(NC2=C(Cl)C(=O)c3ccccc3C2=O)cc1 [Compound 7] | 5.3 | 5.3 | moderately active (moderately active (1 µM < IC50 < 10 µM)) | 12.3 ± 1.08 | 2.32 |  |
| O=C1C(I)=C(I)C(=O)c2ccccc21 [Compound 1b] |  |  |  |  |  | pIC50 fold greater than parent compound 1 (aromatase): 11.90 fold; pIC50 fold greater than letrozole (aromatase; predicted pIC50 versus experimental pIC50 […] of letrozole): 1.03 fold |
| O=C1C(Cl)=C(Nc2ccccc2)C(=O)c2ccccc21 [Compound 3] |  |  | inactive | 16.4 ± 1.28 |  |  |
| O=C1C(F)=C(F)C(=O)c2ccccc21 [Compound 1c] |  |  |  |  |  | pIC50 fold greater than parent compound 1 (aromatase): 2.04 fold |
| O=C1C(Br)=C(Br)C(=O)c2ccccc21 [Compound 1a] |  |  |  |  |  | pIC50 fold greater than parent compound 1 (aromatase): 1.83 fold |
